# Measurements reported in patent US20100210692A1, “METHODS OF TREATMENT USING SIRT MODULATORS AND COMPOSITIONS CONTAINING SIRT1 MODULATORS” (priority 2007, published 2010).
# Entries after “also recorded” stand apart in the source; their conditions may differ.
# Key:
# [1] = test system: Fibroblasts that ectopically express PPARγ; experiment: qPCR of FGF21 mRNA in fibroblasts that ectopically express PPARγ (Example 4); type: cell-based; details: 5 μM compound with 5 μM troglitazone, day 4 to 6
# Method: Cells were harvested on day 6 for qPCR measurement of FGF21 mRNA. Three separate dishes of cells were analyzed for each condition.
# [2] = target: T1, SIRT1 (Homo sapiens, UniProt Q96EB6); experiment: SIRT1 p53-382 IC50 assay (Table 1); type: biochemical
# T1 sequence (Q96EB6 1-747): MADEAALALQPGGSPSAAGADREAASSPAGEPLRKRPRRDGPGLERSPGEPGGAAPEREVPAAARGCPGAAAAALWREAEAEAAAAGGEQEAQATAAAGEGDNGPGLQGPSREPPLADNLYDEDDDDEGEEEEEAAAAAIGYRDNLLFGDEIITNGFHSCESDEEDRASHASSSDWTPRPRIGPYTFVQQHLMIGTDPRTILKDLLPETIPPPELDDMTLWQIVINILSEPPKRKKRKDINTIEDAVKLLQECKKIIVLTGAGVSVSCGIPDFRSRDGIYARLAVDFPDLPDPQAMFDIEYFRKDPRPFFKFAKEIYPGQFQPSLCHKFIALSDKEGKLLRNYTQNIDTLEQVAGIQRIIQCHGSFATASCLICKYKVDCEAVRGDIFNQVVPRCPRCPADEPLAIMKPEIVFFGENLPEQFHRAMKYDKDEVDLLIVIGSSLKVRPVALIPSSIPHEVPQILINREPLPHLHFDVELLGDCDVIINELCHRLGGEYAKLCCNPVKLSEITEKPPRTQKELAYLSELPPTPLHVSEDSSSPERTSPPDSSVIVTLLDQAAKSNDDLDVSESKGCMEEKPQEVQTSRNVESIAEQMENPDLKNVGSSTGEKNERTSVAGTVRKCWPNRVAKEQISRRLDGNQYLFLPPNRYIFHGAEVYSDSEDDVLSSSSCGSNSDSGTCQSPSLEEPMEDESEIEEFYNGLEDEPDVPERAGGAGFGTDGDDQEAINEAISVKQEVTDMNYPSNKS
# [3] = target: T1, SIRT1; experiment: Activity of enantiomers against the SIRT1 enzyme; type: biochemical; details: comparison of enantiomers
# [4] = test system: 3T3-L1 adipocytes; experiment: Western blot of adiponectin secretion and intracellular proteins in 3T3-L1 adipocytes; type: cell-based, Murine; details: for secretion of the HMW adiponectin complexes: non-reducing SDS-PAGE
# Method: Cell Culture: Murine 3T3-L1 preadipocytes were cultured and maintained in DMEM supplemented with […]. Differentiation was induced by exposure of postconfluent cells to DMEM containing 10% […], 1 μM dexamethasone (DEX), 0.5 mM 3-isobutyl-1-methylxanthine (MIX) and […] insulin. After 48 hours, the medium was changed to DMEM containing 10% FBS every two days. Human embryonic kidney (HEK)-293T cells were cultured in DMEM with 10% FBS; The Swiss F-PPARγ cells were differentiated as recently described (Wang et al, 2006; accompanying paper).
# Western Blot Analysis of Proteins: Isolation and western blot analysis of total cell proteins was performed as outlined previously (21). The antibodies employed in the analysis were as follows: Mouse polyclonal anti-adiponectin antibody (Affinity BioREagents, Golden, Colo.), polyclonal anti-SIRT1 antibody (Upstate), anti-PPARγ and anti-C/EBPα (Santa Cruz Biotechnology), anti-Ero1 polyclonal antibody (Abnova Co., Taiwan, China) and polyclonal anti-aP2 serum (Dr. David Benlohr at University of Minnesota). For analysis of secreted proteins, aliquots of the culture medium were centrifuged at low speed to remove debris and then subjected to standard SDS-PAGE as above or non-reducing SDS-PAGE as outlined by Kadowaki and collaborators (37). Prior to electrophoresis, the samples were mixed with 4× non-reducing protein sample buffer (200 mM, […], 8% SDS, 0.4% bromophenot blue, 40% glycerol) and incubated at room temperature for one hour. Care was taken to ensure that all components of the SDs PAGE system were completely free of reducing agents.
# [5] = test system: Swiss WT-PPARγ cells; experiment: RT-PCR of Group 1 and Group 2 genes in Swiss WT-PPARγ cells; type: cell-based, mouse; details: for expression of C/EBPα and adiponectin in response to endogenous ligands (FIG. 14B) / expression of the Group 2 genes in response to endogenous ligands (FIG. 14B): antagonist 10 μM, day 5
# Method: (§1) Cells were then harvested for extraction of RNA followed by RT-PCR analysis of FGF21 and FABP4/aP2 mRNAs as described in materials and methods. (B). […] (C). Reporter assays were also performed in Swiss fibroblasts stably expressing a WT-PPARγ or a pBabe-puro empty vector (control cells) following transfection of the FGF21 promoter reporter plasmids along with the renilla control vector in the presence or absence of GW1929. In both assays (B) and (C), a set of cells were also transfected with a reporter plasmid consisting of the PPRE from the aP2 gene upstream of luciferase within pGL3 (DR-1). Transcriptional activity of each of the fragments of the FGF21 gene promoter is shown as the ratio of luciferase to renilla activity (Luc/Ren) as described in materials and methods.
# (§2) Cells were refed every 2 days.
# [6] = test system: Swiss 3T3 fibroblasts expressing wild type PPARγ; experiment: RT-PCR of mRNAs in Swiss 3T3 fibroblasts expressing wild type PPARγ (FIG. 5); type: cell-based, mouse; details: troglitazone 5 μM or T0070907 10 μM with differentiation cocktail, day 6
# Method: Swiss 3T3 fibroblasts expressing wild type PPARγ or a control vector were induced to differentiate by exposure to a differentiation cocktail of dexamethasone, isobutylmethylxanthine and insulin in 10% FBS as outlined in Materials and Methods (Con). […] At day 6, cells were harvested for analysis of individual mRNAs as indicated using RT-PCR.
# Cell Culture: Murine 3T3-L1 preadipocytes were cultured and maintained in DMEM supplemented with 0% calf serum. Differentiation was induced by exposure of postconfluent cells to DMEM containing 10% MS, 1 μM dexamethasone (DEX), 0.5 mM 3-isobutyl-1-methylxanthine (MIX) and 1,61 μM insulin. After 48 hours, the medium was changed to DMEM containing 10% FBS every two days.
# A Analysis: Total RNA was isolated using TRIzol following the manufacturer's instructions and was subjected to RT-PCR analysis as outlined in the Promega product manual as previously described (31). […] In the case of analyzing Ero1-Lα mRNA, primers were the same as those listed above for generating the Ero1-Lα pRevTRE expression vector.
# [7] = test system: mouse FGF21 promotor constructs; experiment: FGF21 promoter luciferase reporter gene assay in Swiss fibroblasts; type: cell-based; details: 1 μM GW1929, 48 hours
# Method: as §1
# [8] = test system: Swiss EF-PPARγ cells; experiment: RT-PCR of Group 1 and Group 2 genes in Swiss EF-PPARγ / F-PPARγ cells
# Method: In (A), (B) and (C), total RNA of cells was isolated at day 5 using Trizol Reagent (Invitrogen) and subjected to RT-PCR analysis of the indicated Group 1 and Group 2 genes as described in materials and methods.
# Cell Culture: The Swiss fibroblast cell lines expressing wild type (WT.) and mutant forms of PPARγ (E, EF, F, DD) generated as previously described (22) and murine 3T3-L1 preadipocytes were grown in Dulbecco's modified Eagle's medium (DMEM) containing 10% FBS (fibroblasts) or 10% calf serum (preadipocytes) until confluent and were then maintained in the same medium for an additional 2 days. […] Cells were refed every 2 days.
# Analysis of RNA: Total cellular RNA was prepared using TRIzol reagent (InVitrogen) according to the manufacturer's instructions. As were made from equivalent amounts of total RNA by using Reverse Transcription System (Promega) as described previously (33).
# [9] = test system: Swiss F372A PPARγ cells (F-Ero1); experiment: Adiponectin secretion in Swiss F372A PPARγ cells with ectopic Ero1-Lα (FIG. 9); type: cell-based, mouse; details: F-Ero1 cells + tetracycline, 50 μM resveratrol for 2 days from day 4
# [10] = test system: 3T3-L1 adipocytes; experiment: RT-PCR of Group 1 and Group 2 genes in differentiating 3T3-L1 cells (FIG. 17); type: cell-based, murine; details: SIRT1 knockdown 3T3-L1 cells, day 4, 2 days exposure
# From the text: Untreated and treated cells were harvested for analysis of select mRNAs using RT-PCR as described in materials and methods. […] (C). Model proposing interplay between PPARγ and SIRT1 in controlling adipocyte function, PPARγ functions to regulate adipocyte formation and function. Endogenous ligands activate PPARγ requiring participation of both helix 7 and 12 to orchestrate adipogenesis. In mature adipocytes, SIRT1 mediates hormonal and nutrient control of select PPARγ target genes that are involved in controlling metabolism by suppressing the action of endogenous ligands. The thiazolidinedione (TZD) family of synthetic PPARγ ligands can overcome the suppressive effects of SIRT1 acting through helix 7 as well as helix 12 to induce the metabolic genes.
# as §2
# [11] = test system: Ero1-Lα; experiment: Transient knockdown of Ero1-Lα in 3T3-L1 adipocytes; type: cell-based, Murine; details: 100 nM RNAi duplex, transfected day 4 and 5, harvested day 6
# Method: 3T3-L1 preadipocytes were cultured in 60 mm dishes and induced to differentiate as described above. On day 4, the differentiation-inducing medium was replaced with 2.5 mL, fresh DMEM containing 10% FBS. 15 μL TransIT-TKO Transfection Reagent (Mirus Bio Cooperadon. Madison, Wis.) was diluted into 250 μL serum free DMEM and incubated at room temperature for 20 minutes, at which time 100 nM Ero1-Lα RNAi duplex or control duplex […]) was added and mixed thoroughly. After incubation at room temperature for another 20 minutes, the resulting TranIT-TKO/RNAi mixture was gently mixed into the adipocyte cultures. The next day, the medium was changed to 2.5 mL flesh DMEM containing 10% FBS and the transfection was repeated as on day 4. On day 6, the total cellular proteins were harvested and subjected to Western blot analysis. The modified synthetic Ero1-Lα RNAi duplexes (Stealth™ siRNA) were from Invitrogen Life Technologies. The sequences are as follows:
# Western Blot Analysis of Proteins: Isolation and western blot analysis of total cell proteins was performed as outlined previously (21). […]
# [12] = control and SIRT1 knock down 3T3-L1 cells, T0070907 10 μM (FIG. 6D)
# [13] = troglitazone 5 μM or T0070907 10 μM, 3 days
# [14] = resveratrol 50 μM or nicotinamide 5 mM, 2 days
# [15] = resveratrol 50 μM or nicotinamide 5 mM, 2 days, reducing SDS-PAGE
molecule,measurement,setting,value
NC(=O)C1CCCCc2c1[nH]c1ccc(Cl)cc21 (racemic) [Compound E2],FGF21 expression induced by troglitazone (FIG. 20),[1],potentiate the activity of troglitazone in inducing FGF21 expression
"Cc1ccc2[nH]c3c(c2c1)CCCC3C(N)=O (stereo not drawn) [Compound 4, 6-Methyl-2,3,4,9-tetrahydro-1H-carbazole-1-carboxylic acid amide]",IC50,[2],< 1000 nM
NC(=O)C1CCCc2c1[nH]c1ccc(Cl)cc21 (stereo not drawn) [Compound E1],activity against the SIRT1 enzyme,[3],inactive isomer
NC(=O)C1CCCc2c1[nH]c1ccc(Cl)cc21 (stereo not drawn) [Compound E3],FGF21 expression induced by troglitazone (FIG. 20),[1],potentiate the activity of troglitazone in inducing FGF21 expression
same,activity against the SIRT1 enzyme,[3],active isomer
O=C(Nc1ccncc1)c1cc([N+](=O)[O-])ccc1Cl [Compound T0070907],Ero1-Lα expression,[4]; [12],inhibits Ero1-Lα expression
same,adiponectin secretion,[4]; [12],suppresses adiponectin secretion
same,amount of secreted HMW adiponectin,[4]; [13],has the opposite effect
same,secretion of adipsin,[4]; [13],has the opposite effect
same,expression of C/EBPα and adiponectin in response to endogenous ligands (FIG. 14B),[5],moderately attenuate
same,expression of the Group 2 genes in response to endogenous ligands (FIG. 14B),[5],almost completely block expression of the Group 2 genes; also recorded: the most potent
same,Ero1-Lα mRNA expression,[6],attenuates Ero1-Lα expression
CN(CCOc1ccc(C[C@H](Nc2ccccc2C(=O)c2ccccc2)C(=O)O)cc1)c1ccccn1 [GW1929],transcriptional activity of the 500 bp fragment of the FGF21 gene,[7]; Swiss cells stably expressing WT-PPARγ,enhanced many fold
same,luciferase activity of FGF21 gene fragments (FIG. 15B),[7]; Swiss fibroblasts co-transfected with PPARγ expression plasmid,enhanced even further
same,luciferase activity of FGF21 gene fragments (FIG. 15B),[7]; control Swiss fibroblasts without PPARγ plasmid,has no affect on this activity
same,expression of select Group 1 genes (FIG. 14A),[8],capable of inducing expression of the Group 2 genes as well as Group 1 genes
O=C(Nc1ccccc1)c1cc([N+](=O)[O-])ccc1Cl [GW9662],expression of C/EBPα and adiponectin in response to endogenous ligands (FIG. 14B),[5],moderately attenuate
same,expression of the Group 2 genes in response to endogenous ligands (FIG. 14B),[5],almost completely block expression of the Group 2 genes
C[C@@H]1C[C@@H]([C@H](O)CC2CC(=O)NC(=O)C2)C(=O)[C@@H](C)C1 [cycloheximide],FGF21 mRNA expression (FIG. 15A),"[5]; day 5 cells, troglitazone 5 μM or cycloheximide 5 μg/ml for 4, 6 or 8 hrs",induced simply due to exposure to cycloheximide
O=C[C@H](O)[C@@H](O)[C@H](O)[C@H](O)CO [glucose],secretion of HMW forms of adiponectin,"[4]; glucose or 20 mM lactate, non-reducing SDS-PAGE without heat",significant increase in the appearance of the HMW species in the media
same,SIRT1 expression,"[4]; increase in glucose concentration, 72 hrs",significant decrease of SIRT1 expression
same,amount of adiponectin secreted into the medium (Ext),"[4]; increasing concentrations of glucose, 72 hrs, reducing SDS-PAGE",dramatically increases the amount of adiponectin secreted into the medium
NC(=O)c1cccnc1 [nicotinamide],secretion of adipsin,[4]; [14],has no effect on adipsin
same,secretion of the HMW adiponectin complexes,[4]; [14],enhances
same,secretion of adiponectin (Ext),[4]; [15],enhancing secretion of adiponectin
Oc1ccc(C=Cc2cc(O)cc(O)c2)cc1 [resveratrol],secretion of adipsin,[4]; [14],without affecting secretion of adipsin
same,secretion of the HMW adiponectin complexes,[4]; [14],decreases
same,secretion of adiponectin (Ext),[4]; [15],reduces the secretion of adiponectin
same,secretion of adiponectin,[9],inhibits secretion of adiponectin
Cc1c(C)c2c(c(C)c1O)CCC(C)(COc1ccc(CC3SC(=O)NC3=O)cc1)O2 (stereo not drawn) [troglitazone],dose of troglitazone inducing FGF21 and Egln1 (FIG. 17B),[10],250 nM
same,"doses of troglitazone inducing C/EBPα, adiponectin and FABP4/aP2 (FIG. 14C)","[8]; EF-PPARγ cells, 5 days",250 to 500 nM
OCCS [β-mercaptoethanol],secretion of adiponectin,"[4]; β-mercaptoethanol treatment, preliminary data, not shown",significantly enhances the secretion of adiponectin
GGGCUCUCUCCAAAGUGCUUCCAUU [siRNA #3],attenuation of Ero1-Lα expression,[11],the most effective
